Data on one molecule can be found in US8673816B2, “Surfactants in agrochemical formulations” (Croda, Inc., priority 2009, dated 2014).

Structures are written as SMILES.

For the experiment, the system named is oil seed rape plants (Brassica napus). The experiment in a line: Greenhouse trial of surfactants as adjuvants for Glyphosate. It is filed as in vivo. Conditions: for % control: fresh weight vs untreated controls. The source says:
A greenhouse trial was run to evaluate the effectiveness of the surfactants of the invention as adjuvants for Glyphosate in controlling the growth of (non-roundup ready) oil seed rape plants (Brassica napus). The trial used surfactant of the invention (SE1) and control adjuvant (FAE) at 3 rates, with 3 rates of glyphosate application, and controls including 3 glyphosate rates without surfactant, all grown in randomised blocks. 10 replications were used for each application, with 1 pot (7×7×8 cm) per plot and at least 4 plants per pot, in Levington M2 medium. The greenhouse conditions of temperature and humidity were recorded and watering was carried out by capillary matting. Additional lighting was provided over natural daylight. The glyphosate treatments were carried out using a pre-calibrated Mardrive greenhouse cabinet sprayer at a volume rate of about 200 I.ha^−1. […]
The type and application rate (Rate in g.ha^−1) of nominally 100% adjuvant, the application rate (Rate in g.ha^−1 active) of glyphosate, the glyphosate to adjuvant weight ratio (G:A) applied to the test plants and the visual assessment (%), and the % control are set out in Table AEA1 below.

The mark [1] stands for this setting: 28 d, glyphosate 125 g.ha^−1, no adjuvant.
Where [2] appears, read: 28 d, glyphosate 250 g.ha^−1, no adjuvant.
The mark [3] stands for this setting: 28 d, glyphosate 500 g.ha^−1, no adjuvant.

In the case of `O=C(O)CNCP(=O)(O)O` [Glyphosate, N-phosphonomethyl glycine], the “% damage” value is, setting by setting: (15 d, glyphosate 125 g.ha^−1, no adjuvant) 0%; (15 d, glyphosate 250 g.ha^−1, no adjuvant) 1.5%; (15 d, glyphosate 500 g.ha^−1, no adjuvant) 11%; (21 d, glyphosate 125 g.ha^−1, no adjuvant) 5%; (21 d, glyphosate 250 g.ha^−1, no adjuvant) 5%; (21 d, glyphosate 500 g.ha^−1, no adjuvant) 33%. Further, the “% damage” value reads like this: under setting [1], 0%; under setting [2], 0%; under setting [3], 52%. The “% control” value under setting [1] is recorded as 0.2%, the “% control” value under setting [2] is recorded as −6.4% and the “% control” value under setting [3] was 49.5%.
